Patent US20140031368A1, “SELECTIVE HDAC INHIBITORS” (THE TRUSTEES OF COLUMBIA UNIVERSITY IN THE CITY OF NEW YORK, priority 2010, published 2014)

Key:
HDAC6 = target: T1, HDAC6 (Homo sapiens, UniProt Q9UBN7); test: Fluorogenic HDAC assay kit (BPS Bioscience), HDAC6 inhibition; format: biochemical; settings: for IC50: purified/recombinant enzyme, inhibitor range 10,000-0.1 nM; for IC50 0 ratio (1/6): ratio IC50 HDAC1 / IC50 HDAC6
T1 sequence (Q9UBN7 1-1215): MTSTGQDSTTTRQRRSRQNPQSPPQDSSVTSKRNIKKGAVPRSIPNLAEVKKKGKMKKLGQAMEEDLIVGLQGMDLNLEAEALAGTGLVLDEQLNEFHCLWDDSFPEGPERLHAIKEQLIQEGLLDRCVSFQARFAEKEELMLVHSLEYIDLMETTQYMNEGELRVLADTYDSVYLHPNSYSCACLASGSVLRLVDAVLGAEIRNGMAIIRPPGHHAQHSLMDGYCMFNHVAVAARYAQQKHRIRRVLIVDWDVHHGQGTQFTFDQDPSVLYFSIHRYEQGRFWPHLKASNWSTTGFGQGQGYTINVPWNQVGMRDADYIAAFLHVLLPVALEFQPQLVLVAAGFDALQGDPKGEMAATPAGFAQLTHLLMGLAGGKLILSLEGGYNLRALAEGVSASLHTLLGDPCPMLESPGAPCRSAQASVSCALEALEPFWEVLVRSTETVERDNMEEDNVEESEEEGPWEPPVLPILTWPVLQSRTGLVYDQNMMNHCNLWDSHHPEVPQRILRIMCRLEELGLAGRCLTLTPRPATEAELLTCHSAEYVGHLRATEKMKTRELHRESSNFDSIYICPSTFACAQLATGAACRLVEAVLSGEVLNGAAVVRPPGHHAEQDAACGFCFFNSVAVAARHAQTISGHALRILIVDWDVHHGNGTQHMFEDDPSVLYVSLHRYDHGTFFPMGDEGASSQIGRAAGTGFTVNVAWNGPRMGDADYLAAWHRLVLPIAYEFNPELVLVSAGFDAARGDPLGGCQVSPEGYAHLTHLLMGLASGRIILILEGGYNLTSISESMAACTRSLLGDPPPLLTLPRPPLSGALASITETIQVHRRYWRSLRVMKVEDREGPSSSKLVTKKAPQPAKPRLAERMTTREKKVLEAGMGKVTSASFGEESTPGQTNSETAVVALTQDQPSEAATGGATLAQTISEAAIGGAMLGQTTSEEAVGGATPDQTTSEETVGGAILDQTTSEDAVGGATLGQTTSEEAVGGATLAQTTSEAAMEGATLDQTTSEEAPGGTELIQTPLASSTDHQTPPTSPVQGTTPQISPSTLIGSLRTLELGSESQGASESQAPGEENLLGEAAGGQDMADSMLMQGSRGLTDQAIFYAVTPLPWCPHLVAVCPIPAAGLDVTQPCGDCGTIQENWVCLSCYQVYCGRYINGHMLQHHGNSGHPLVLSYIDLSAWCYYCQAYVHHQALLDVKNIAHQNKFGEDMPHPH
Method: (§1) Various compounds were tested in in vitro enzyme assays for their activity in inhibiting HDAC6 and HDAC1. The assays used was a fluorogenic HDAC assay kit (BPS Bioscience, San Diego, Calif.). On a micotiter the HDAC fluorometric substrate containing an aceylated side chain is incubated with a sample containing HDAC activity (purified/recombinant HDAC1 or HDAC6 enzyme). The deacetylation sensitizes the substrate so subsequent treatment with a lysine developer produces a fluorophore that can then be measured using a fluorescence reader. The assay is performed in the absence and presence of the potential inhibitor compound.
(§2) Follow BPS Bioscience Fluorogenic HDAC Assay Kit (see Example 2). Range of inhibitor compounds tested: 10,000-0.1 nM

HDAC1 = HDAC1 (Homo sapiens, UniProt Q13547); test: Fluorogenic HDAC assay kit (BPS Bioscience), HDAC1 inhibition; format: biochemical; settings: purified/recombinant enzyme; inhibitor range 10,000-0.1 nM
Method: as §1, §2

NP-C mutant fibroblasts = format: cell-based, human
NP-C fibroblasts = test: Esterification of LDL-derived cholesterol (cholesteryl [3H]oleate formation) in NP-C fibroblasts; format: cell-based, human; settings: 24 h treatment with 5 μM SAHA after 4 d in LPDS; FIG. 4B
Method: Cells were grown for 4 d in LPDS, followed by a 24 h treatment with or without 5 μM SAHA, the last 4 h of which included LDL plus [^3H]oleate. *P<0.05, treated vs. untreated cells by two-tailed Student's t-test.

[1] = test system: HDAC genes in NPC-26 fibroblasts; test: qRT-PCR of HDAC gene expression in NPC-26 fibroblasts; format: cell-based, human; settings: NPC-26 fibroblasts treated with HDAC inhibitor; FIG. 3B

Chain of HDAC1 (Q13547 whole entry): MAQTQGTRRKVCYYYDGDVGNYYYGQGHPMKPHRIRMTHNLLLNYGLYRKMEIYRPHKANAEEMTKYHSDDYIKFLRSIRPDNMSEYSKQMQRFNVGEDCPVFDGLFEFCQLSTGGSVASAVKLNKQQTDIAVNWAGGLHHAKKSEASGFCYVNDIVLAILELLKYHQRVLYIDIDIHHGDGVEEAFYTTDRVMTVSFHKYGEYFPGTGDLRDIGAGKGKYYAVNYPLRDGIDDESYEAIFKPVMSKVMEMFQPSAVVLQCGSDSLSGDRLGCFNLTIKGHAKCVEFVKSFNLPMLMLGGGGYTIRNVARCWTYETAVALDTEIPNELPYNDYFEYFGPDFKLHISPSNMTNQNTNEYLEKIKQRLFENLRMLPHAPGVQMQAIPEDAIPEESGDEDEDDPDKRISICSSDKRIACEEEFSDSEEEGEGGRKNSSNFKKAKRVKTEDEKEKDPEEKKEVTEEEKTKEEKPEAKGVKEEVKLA

Compound | IC50 (HDAC6) [nM] | IC50 0 ratio (1/6) (HDAC6) | IC50 (HDAC1) [nM] | lysosomal accumulation of unesterified cholesterol (filipin) (NP-C mutant fibroblasts) | esterification of LDL-derived cholesterol (percent cholesteryl [3H]oleate formation relative to total lipids) (NP-C fibroblasts) | HDAC gene expression (qRT-PCR) [1]
CC(C)(C)OC(=O)Nc1ccc(-c2csc(C(=O)NCCCCCCC(=O)NO)c2)cc1 [Compound 79] | 4.4 | 10.6 | 46.7 | – | – | –
O=C(CCCCCCC(=O)Nc1ccc(C(C(=O)Nc2ccccc2)C(=O)Nc2ccccc2)cc1)NO [Compound 9, N^1-(4-(1,3-Dioxo-1,3-bis(phenylamino)propan-2-yl)phenyl)-N^8-hydroxyoctanediamide] | 3 | 42.9 | 129 | – | – | –
O=C(CCCCCCC(=O)Nc1ccc(C(C(=O)Nc2cccc3cccnc23)C(=O)Nc2cccc3cccnc23)cc1)NO [Compound 6, N^1-(4-(1,3-Dioxo-1,3-bis(quinolin-8-ylamino)propan-2-yl)phenyl)-N^8-hydroxyoctanediamide] | 2.25 | 107 | 242 | – | – | –
O=C(CCCCCC(=O)Nc1ccc(C(C(=O)Nc2cccc3cccnc23)C(=O)Nc2cccc3cccnc23)cc1)NO [Compound 31, N^1-(4-(1,3-dioxo-1,3-bis(quinolin-8-ylamino)propan-2-yl)phenyl)-N^7-hydroxyheptanediamide] | 22 | 51 | 1130 | – | – | –
O=C(CCCCCCCC(=O)Nc1ccc(C(C(=O)Nc2cccc3cccnc23)C(=O)Nc2cccc3cccnc23)cc1)NO [Compound 28, N^1-(4-(1,3-dioxo-1,3-bis(quinolin-8-ylamino)propan-2-yl)phenyl)-N^9-hydroxynonanediamide] | 57 | 25 | 1440 | – | – | –
CC(C)(C)OC(=O)Nc1ccc(-c2cc(C(=O)NCCCCCCC(=O)NO)no2)cc1 [Kozikowski compound, reference compound] | – | – | 38.4 | – | – | –
O=C(CCCCCCNC(=O)c1ccc(C(C(=O)Nc2cccc3cccnc23)C(=O)Nc2cccc3cccnc23)cc1)NO [Compound 61, 2-(4-(7-(hydroxyamino)-7-oxoheptylcarbamoyl)phenyl)-N1,N3-di(quinolin-8-yl)malonamide] | 12 | 87 | 1040 | – | – | –
O=C(CCCCCCNC(=O)c1ccc(C(F)(C(=O)Nc2cccc3cccnc23)C(=O)Nc2cccc3cccnc23)cc1)NO [Compound 65, 2-Fluoro-2-(4-(7-(hydroxyamino)-7-oxoheptylcarbamoyl)phenyl)-N1,N3-di(quinolin-8-yl)malonamide] | 42 | 58 | 2450 | – | – | –
CC(C)(C)c1ccc(NC(=O)C(CCCCCC(=O)NO)C(=O)Nc2ccc(C(C)(C)C)cc2)cc1 [Compound 77] | 34.4 | 3.1 | 106 | – | – | –
O=C(CCCCCCC(=O)Nc1ccccc1)NO [SAHA, suberoylanilide hydroxamic acid] | – | – | – | Reduction in lysosomal accumulation of unesterified cholesterol | Restoration of deficient esterification of LDL-derived cholesterol | restores expression in the direction of control cells
CC(C)(C)c1ccc(CNC(=O)CCCCCCCC(=O)NO)cc1 [Compound 78] | 65.7 | 10.3 | 676 | – | – | –
